From ChEMBL document CHEMBL5050861 (2021)
≈ marks a conversion by molar mass, not a printed value.

Assays:
[1] = Kinetic aqueous solubility of the compound; format: physicochemical; details: buffer; read-out: Kinetic_solubility
[2] = Inhibition of recombinant mouse GALK1 using ATP as substrate incubated for 1 hr and measured by Kinase-Glo assay
[3] = Stability of compound in rat microsomes assessed as half-life; format: ADME, Microsome

solubility kinetic [1] [µg/mL] | IC50 ([2]; read-out: IC50) [µM] | half-life [3] [min] | IC50 [2] | SMILES
< 1 | – | 11.3 | Not Active | CC1=C(C(=O)NCc2ccc(F)cc2)C(c2ccccc2Cl)N=C(Nc2nc3ccccc3o2)N1 (stereo unspecified)
11.1 (≈ 21.7 µM) | 19.3 | > 30 | – | CC1=C(C(=O)Nc2nncs2)C(c2cccnc2Br)N=C(Nc2nc3ccccc3o2)N1 (stereo unspecified)
24.2 (≈ 50.8 µM) | 12.2 | 15.7 | – | CC1=C(C(=O)NCc2cnn(C)c2)C(c2ccccc2Cl)N=C(Nc2nc3ccccc3o2)N1 (stereo unspecified)
34.6 (≈ 75.9 µM) | 54.4 | > 30 | – | CC1=C(C(=O)Nc2nncs2)C(c2n[nH]cc2Cl)N=C(Nc2nc3ccccc3o2)N1 (stereo unspecified)
< 1 | 10.9 | > 30 | – | COC(=O)c1cc(NC(=O)C2=C(C)NC(Nc3nc4ccccc4o3)=NC2c2ccccc2Cl)ccn1 (stereo unspecified)
6.5 (≈ 12.7 µM) | 19.3 | > 30 | – | CC1=C(C(=O)Nc2nncs2)C(c2ccncc2Br)N=C(Nc2nc3ccccc3o2)N1 (stereo unspecified)
21.9 (≈ 42.1 µM) | 17.2 | > 30 | – | O=C(Nc1nncs1)C1=C(C(F)(F)F)NC(Nc2nc3ccccc3o2)=NC1c1ccccc1Cl (stereo unspecified)
< 1 | 10.9 | > 30 | – | CC1=C(C(=O)Nc2nncs2)C(c2cc(Cl)ccc2Cl)N=C(Nc2nc3ccccc3o2)N1 (stereo unspecified)
< 1 | 9.68 | 22.3 | – | CC1=C(C(=O)Nc2ccc(CN3CCOCC3)cc2)C(c2ccccc2Cl)N=C(Nc2nc3ccccc3o2)N1 (stereo unspecified)
< 1 | 9.68 | > 30 | – | CC1=C(C(=O)Nc2nncs2)C(c2ccccc2Br)N=C(Nc2nc3ccccc3o2)N1 (stereo unspecified)
< 1 | 19.3 | > 30 | – | CC1=C(C(=O)Nc2nnc(-c3ccncc3)s2)C(c2ccccc2Cl)N=C(Nc2nc3ccccc3o2)N1 (stereo unspecified)
< 1 | 19.3 | > 30 | – | CC1=C(C(=O)Nc2ncc(CO)s2)C(c2ccccc2Cl)N=C(Nc2nc3ccccc3o2)N1 (stereo unspecified)
10 (≈ 20.5 µM) | 4.32 | 72.5 | – | CC1=C(C(=O)Nc2ccc(CN)cc2)C(c2ccccc2Cl)N=C(Nc2nc3ccccc3o2)N1 (stereo unspecified)
< 1 | 21.7 | > 30 | – | CC1=C(C(=O)Nc2nncs2)C(c2ccccc2C)N=C(Nc2nc3ccccc3o2)N1 (stereo unspecified)
< 1 | 10.9 | 5.48 | – | O/N=C1\CCCC2=C1C(c1ccccc1Cl)N=C(Nc1nc3ccccc3o1)N2 (stereo unspecified)
11.4 (≈ 22.8 µM) | 19.3 | > 30 | – | CC1=C(C(=O)Nc2nncs2)C(c2n[nH]cc2Br)N=C(Nc2nc3ccccc3o2)N1 (stereo unspecified)
< 1 | 12.2 | 20 | – | CC1=C(C(=O)Nc2cccnc2)C(c2ccccc2Cl)N=C(Nc2nc3ccccc3o2)N1 (stereo unspecified)
< 1 | 13.7 | 11.5 | – | CC1=C(C(=O)Nc2ccc(N(C)C)cc2)C(c2ccccc2Cl)N=C(Nc2nc3ccccc3o2)N1 (stereo unspecified)
< 1 | 12.2 | > 30 | – | CC1=C(C(=O)Nc2ccc(F)cc2)C(c2ccccc2Cl)N=C(Nc2nc3ccccc3o2)N1 (stereo unspecified)
37.9 (≈ 92.1 µM) | – | > 30 | Not Active | CC1=C(C(=O)Nc2nncs2)C2(CCOC2)N=C(Nc2nc3ccccc3o2)N1 (stereo unspecified)
< 1 | 21.7 | > 30 | – | CC1=C(C(=O)Nc2ccc(C(=O)N3CCOCC3)cc2)C(c2ccccc2Cl)N=C(Nc2nc3ccccc3o2)N1 (stereo unspecified)
< 1 | 17.2 | > 30 | – | CC(C)CC1=C(C(=O)Nc2nncs2)C(c2ccccc2Cl)N=C(Nc2nc3ccccc3o2)N1 (stereo unspecified)
< 1 | 10.9 | > 30 | – | CNC(=O)c1ccnc(NC(=O)C2=C(C)NC(Nc3nc4ccccc4o3)=NC2c2ccccc2Cl)c1 (stereo unspecified)
< 1 | 5.44 | > 30 | – | COc1ccc(C2N=C(Nc3nc4ccccc4o3)NC(C)=C2C(=O)Nc2nncs2)c(Cl)c1 (stereo unspecified)
3.5 (≈ 7.93 µM) | 24.3 | > 30 | – | CC1=C(C(=O)Nc2nncs2)C2(CCSCC2)N=C(Nc2nc3ccccc3o2)N1
< 1 | – | 28.7 | Not Active | CC1=C(C(=O)Nc2ccccc2Cl)C(c2ccccc2Cl)N=C(Nc2nc3ccccc3o2)N1 (stereo unspecified)

The remaining lines, values behind:

SMILES | solubility kinetic [1] [µg/mL] | IC50 ([2]; read-out: IC50) [µM] | half-life [3] [min] | IC50 [2]
COC(=O)c1ccc(NC(=O)C2=C(C)NC(Nc3nc4ccccc4o3)=NC2c2ccccc2Cl)cc1 (stereo unspecified) | < 1 | 9.68 | 17.7 | –
CC1=C(C(=O)Nc2cc(C(=O)O)ccn2)C(c2ccccc2Cl)N=C(Nc2nc3ccccc3o2)N1C (stereo unspecified) | > 76 | 34.4 | > 30 | –
CC1=C(C(=O)Nc2cc(C(=O)O)ccn2)C(c2ccc(-c3ccc(C(F)(F)F)cc3)cc2Cl)N=C(Nc2nc3ccc(F)cc3o2)N1 (stereo unspecified) | 8.1 (≈ 12.2 µM) | 21.7 | > 30 | –
CC1=C(C(=O)Nc2ccccn2)C(c2ccccc2Cl)N=C(Nc2nc3ccc(F)cc3o2)N1 (stereo unspecified) | < 1 | 10.9 | > 30 | –
CC1=C(C(=O)Nc2cc(C(=O)O)ccc2F)C(c2ccccc2Cl)N=C(Nc2nc3ccc(F)cc3o2)N1 (stereo unspecified) | 35.7 (≈ 66.4 µM) | 6.85 | > 30 | –
CCn1cc(CNC(=O)C2=C(C)NC(Nc3nc4ccc(F)c(N)c4o3)=N[C@@H]2c2ccc(C)cc2Cl)cn1 | < 1 | 10.9 | 8.62 | –
CC1=C(C(=O)NCc2cnn(C)c2)C(c2ccccc2Cl)N=C(Nc2nc3ccc(F)cc3o2)N1 (stereo unspecified) | 13.7 (≈ 27.7 µM) | 12.2 | 26 | –
CC1=C(C(=O)NCc2cnn(C)c2)[C@H](c2ccc(C)cc2Cl)N=C(Nc2nc3cccc(N)c3o2)N1 | 17.1 (≈ 33.9 µM) | 1.58 | 18.9 | –
CC1=C(C(=O)NCc2cnn(CC(F)(F)F)c2)C(c2ccc(C)cc2Cl)N=C(Nc2nc3ccc(F)c(N)c3o2)N1 (stereo unspecified) | 1.56 (≈ 2.64 µM) | 3.06 | 18.7 | –
CC1=C(C(=O)Nc2cc(N(C)C)ccn2)C(c2ccc(C)cc2Cl)N=C(Nc2nc3ccc(F)cc3o2)N1 (stereo unspecified) | 6.2 (≈ 11.6 µM) | 6.85 | 17.6 | –
CC1=C(C(=O)NCc2c(C)nn(C)c2C)C(c2ccc(C)cc2Cl)N=C(Nc2nc3cccc(N)c3o2)N1 (stereo unspecified) | 12 (≈ 22.5 µM) | 6.85 | 2.37 | –
CCn1cc(CNC(=O)C2=C(C)NC(Nc3nc4ccc(F)c(N)c4o3)=NC2c2ccccc2Cl)cn1 (stereo unspecified) | 23.9 (≈ 45.6 µM) | 2.17 | 17.7 | –
CC1=C(C(=O)Nc2cc(C(=O)O)ccn2)C(c2ccc(C)cc2Cl)N=C(Nc2nc3cccc(N)c3o2)N1 (racemic) | > 78 | 1.72 | > 30 | –
CC1=C(C(=O)NCc2cnn(Cc3ccccc3)c2)C(c2ccc(C)cc2Cl)N=C(Nc2nc3cccc(N)c3o2)N1 (stereo unspecified) | < 1 | 5.44 | 6.73 | –
CC1=C(C(=O)Nc2cc(C(=O)O)ccn2)C(c2cc(C(=O)O)ccc2Cl)N=C(Nc2nc3ccc(F)cc3o2)N1 (stereo unspecified) | > 83 | 12.2 | > 30 | –
CC1=C(C(=O)NCc2cnn(C)c2)C(c2ccc(C)cc2Cl)N=C(Nc2nc3cnccc3o2)N1 (stereo unspecified) | > 49 | 12.2 | 5.12 | –
COC(=O)c1cccc(CNC(=O)C2=C(C)NC(Nc3nc4ccccc4o3)=NC2c2ccccc2Cl)c1 (stereo unspecified) | < 1 | 7.69 | 3.42 | –
CC1=C(C(=O)NCc2cnn(C)c2)C(c2ccc(C)cc2Cl)N=C(Nc2nc3cccnc3o2)N1 (stereo unspecified) | 4.8 (≈ 9.78 µM) | – | 3.66 | Not Active
CC1=C(C(=O)Nc2cc(C(=O)O)ccn2)C(c2ccc(N3CCCCC3)cc2Cl)N=C(Nc2nc3ccc(F)cc3o2)N1 (stereo unspecified) | 1.92 (≈ 3.18 µM) | 12.2 | > 30 | –
CC1=C(C(=O)NCc2cnn(C(C)(C)C)c2)C(c2ccc(C)cc2Cl)N=C(Nc2nc3ccc(F)c(N)c3o2)N1 (stereo unspecified) | < 1 | 4.32 | 14.4 | –
CC1=C(C(=O)NCc2cnn(C)c2)[C@@H](c2ccc(C)cc2Cl)N=C(Nc2nc3cccc(N)c3o2)N1 | 21.9 (≈ 43.4 µM) | 30.6 | 7.87 | –
